We go through one substance from PMC3664642, “A Peptide against Soluble Guanylyl Cyclase α1: A New Approach to Treating Prostate Cancer” (PLoS ONE, 2013).

Data set [1] concerns the target T1, sGCα1 (Homo sapiens, UniProt Q02108).
T1 sequence (Q02108 1-690): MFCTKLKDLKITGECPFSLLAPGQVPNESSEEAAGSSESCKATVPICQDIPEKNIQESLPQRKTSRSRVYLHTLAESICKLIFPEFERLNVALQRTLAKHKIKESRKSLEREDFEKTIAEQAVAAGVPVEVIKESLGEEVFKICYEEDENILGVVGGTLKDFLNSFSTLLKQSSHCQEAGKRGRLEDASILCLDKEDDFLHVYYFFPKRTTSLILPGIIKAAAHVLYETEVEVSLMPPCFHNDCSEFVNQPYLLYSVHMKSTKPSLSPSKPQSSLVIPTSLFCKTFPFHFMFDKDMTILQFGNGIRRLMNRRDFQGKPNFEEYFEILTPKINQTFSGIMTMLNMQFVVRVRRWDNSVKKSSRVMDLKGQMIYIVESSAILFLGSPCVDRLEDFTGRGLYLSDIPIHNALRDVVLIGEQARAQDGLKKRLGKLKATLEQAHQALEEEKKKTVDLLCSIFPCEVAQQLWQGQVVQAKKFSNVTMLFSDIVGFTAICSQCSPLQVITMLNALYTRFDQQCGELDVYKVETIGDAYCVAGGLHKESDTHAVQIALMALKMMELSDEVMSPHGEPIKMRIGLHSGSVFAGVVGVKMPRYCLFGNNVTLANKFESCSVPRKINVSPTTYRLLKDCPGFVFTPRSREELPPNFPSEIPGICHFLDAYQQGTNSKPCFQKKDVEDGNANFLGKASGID
Nature of the data set: Binding affinity by immunoprecipitation with FITC-tagged peptide. Also noted: endogenous sGCα1 was immunoprecipitated; endogenous in cells; host or cells: C81 cells (methods). The settings on record: C81 whole-cell extract (legend: LNCaP extract), room temperature, 2 hours, IP with anti-sGCα1, fluorescence 485/521 nm, nonlinear regression. How it is done: For binding affinity experiments, whole-cell extract from C81 cells was incubated with different concentrations of Peptide A-8R tagged with FITC at room temperature for 2 hours. IPs were performed using antibodies against sGCα1 or rabbit IgG as control. Peptide A-8R-FITC pulldown was measured by fluorescence signal at excitation and emission wavelengths of 485 and 521 nm, respectively, using a multi-well fluorescence plate reader.
(§1) Figure 2 Peptide A-8R interacts with sGCα1 in prostate cancer cells. (A) LNCaP cells were treated with 25 µM Biotin-labeled Peptide A-8R for 2 hrs and subjected to immunocytochemistry using anti-sGCα1 or anti-Biotin antibody to measure subcellular co-localization of endogenous sGCα1 and Peptide A-8R. DAPI was used to stain nuclei. (B) LNCaP cytosolic extracts were incubated with Peptide A-8R-Biotin and subjected to purification using streptavidin-agarose. This pull-down experiment was repeated with competing excess amount of unlabeled Peptide C-8R or Peptide A-8R. In both cases Western blotting was used to measure the co-purification of sGCα1. (C) LNCaP cell extract was incubated with different concentrations of Peptide A-8R-FITC and endogenous sGCα1 was immunoprecipitated. Co-purified Peptide A-8R-FITC was quantified by measuring fluorescence signal emission. […] Cell number was measured after 0–48 hrs of incubation. […]

Data set [2] deals with T1, sGCα1. Nature of the data set: Biotin pulldown and competition from LNCaP extract. The data set is classed as binding. The settings on record: competition, 150 µg unlabeled peptide vs 5 µg Peptide A-8R-Biotin; Fig. 2B. As for the experimental part:
Immunoprecipitation (IP) in LNCaP cells was performed as described previously. Whole-cell extracts from LNCaP cells were subjected to IP using Protein A/G plus Agarose (Santa Cruz). IP antibodies were against sGCα1 (Cayman Chemical), sGCβ1 (Cayman Chemical), or rabbit IgG (Santa Cruz) as control. For Biotin pulldown, 5 µg Biotin-labeled Peptide A was incubated with NeutrAvidin Agarose Resin (Thermo Scientific) for 3 hours at 4°C, after which whole-cell extract from LNCaP cells was added and incubated overnight at 4°C. Resin was washed and eluted with SDS Sample buffer, followed by SDS-PAGE gel electrophoresis.
as §1, with “(C) LNCaP cell extract was incubated with different concentrations of Peptide A-8R-FITC and endogenous sGCα1 was immunoprecipitated.” left out

For a further data set, the system named is C81 cells. Nature of the data set: NAC rescue of proliferation of Peptide A-8R-treated cells (MTT). The data set is classed as cell-based. As to conditions: 50 µM vs 10 and 25 µM. How it is done:
For proliferation, cells were grown in medium containing 2% FBS extracted with dextran-coated charcoal (DCC). 48 hours later, ethanol or 1 nM R1881 was added to the cells followed by peptide treatment. The MTT assay (Sigma) was used as before to determine cell number. For apoptosis, 5000 cells were seeded in 96-well plates and treated with Vehicle (DMSO), Peptide A-8R (25 µM), Etoposide (50 µM) (Sigma) at different time points. The Caspase (3/7) activity was measured using Apo-ONE Homogeneous Caspase-3/7 assay kit (Promega). PARP cleavage was also used to measure apoptosis, and is described below.
Intracellular ROS levels were evaluated using the fluorescent probe 5-(and-6)-chloromethyl-2′,7′-dichlorodihydrofluorescein diacetate (CM-H2DCFDA) (Invitrogen). After treatments with Peptide A-8R, C81 cells were loaded with 20 µM CM-H2DCFDA and incubated at 37°C for 30 min in the dark. Cells were then washed with PBS and fluorescence was measured at the excitation and emission wavelengths of 490 and 535 nm, respectively, using a multi-well fluorescence plate reader. For NAC (N-acetyl cysteine) (Sigma) rescue experiment, cells were pretreated with 1 or 5 mM NAC for 2 hours before adding Peptide A-8R.
Figure 4 Peptide A-8R kills prostate cancer cells by mediating ROS generation. (A) C81 cells were treated with Vehicle or different µMolar concentrations of Peptide A-8R and without or with 0–5 mM NAC and monitored for ROS generation after 0–30 min as measured by fluorescence intensity (FI). Bar graphs represent averages of three independent experiments plus standard deviations. Note that asterisks on bar graphs found with NAC are compared to equivalent data without NAC. (B) C81 cells were treated with Vehicle or different concentrations of Peptide A-8R, as shown, and 0–5 mM NAC, as shown, and monitored for cell number after 0–6 days of incubation as measured by MTT assay. Data points represent averages of three independent experiments plus standard deviations. Asterisks indicate statistical significance (P<0.04). (C) C81 cells were treated with Vehicle or different concentrations of Peptide A-8R, as shown, and with or without 5 mM NAC, as shown, and monitored DNA damage after 1 hr incubation as measured by Comet assay.

A further data set has as its system p53. The experiment in a line: p53 activity and dependence. The data set is classed as cell-based. As to conditions: prostate cancer cells; data not shown.

Where no end group is shown, it is not given here.

For Ac-TFCKAFPFHIIRRRRRRRR [Peptide A-8R], at sGCα1 [1], the Kd – broadly, a measure of binding affinity in units of concentration – was 11.6 µM. In addition, the “inhibition of Peptide A-8R-Biotin interaction with sGCα1” value on sGCα1 [2] was “significantly inhibited Peptide A-8R-Biotin interaction with sGCα1”. For the same substance, the “cytotoxicity at 50 µM relative to lower concentrations” value with C81 cells is “strongest cytotoxic activity”. Besides, the “effect on p53 activity and p53 dependence of apoptosis” value with p53 is “does not disrupt p53 activity nor depend on endogenous p53 for inducing apoptosis”.
